Columns and labels:
[1] = test system: BT-474 xenograft tumours; assay: Immunohistochemical and immunoblot analysis of signalling markers in xenograft tumours; type: in vivo, mice; details: end of treatment, IHC and immunoblot
Protocol: (§1) Figure 8 Dual treatment with Akt and SGK inhibitors reduces tumour growth in BT‐474 xenograft model • BT‐474 cells were treated for the indicated times with 0.3 μM MK‐2206. The cell lysates were analysed by immunoblot using the indicated antibodies. • BT‐474c cells were treated with inhibitors as indicated either as monotherapy or in combination and cell confluency measured on the Incucyte ZOOM every 4 h for up to 4 weeks. • BT‐474 cells were injected subcutaneously into athymic Foxn1 ^nu nude mice. […] The tumour volume was measured twice a week. Tumour growth is represented as the fold change mean ± SEM. • All mice were weighed at the end of the treatments. […] Apoptotic cells were counted in 25 fields per condition (left panel) and quantified as clCasp3‐positive cells/field (right panel). […] Six different tumours were analysed from each treatment group and each line represents one tumour sample. […]
(§2) Experiments involving mice were in accordance with Institutional Guidelines of Memorial Sloan Kettering Cancer Center (Protocol number 12‐10‐019). […] When tumours reached a volume of ~150 mm^3, mice were randomised, treated, and tumours were measured twice a week. Tumour volume was determined using the following formula: (length × width^2) ÷ 2. […]

[2] = target: MLK3 (Homo sapiens, UniProt Q16584); assay: IC50 on recombinant MLK3; type: biochemical; details: Fig 5B / Appendix Fig S1B, recombinant kinase, unit inferred
Protocol: The result for each kinase is presented as a mean kinase activity of the reaction taken in triplicate relative to a control reaction where the inhibitors were omitted. […] SGK3 was immunoprecipitated from cell lysates and subjected to in vitro kinase assay by measuring phosphorylation of the Crosstide substrate peptide in the presence of 0.1 mM [γ‐^32P]ATP in a 30 min 30°C reaction (upper panel). Kinase reactions are presented as means ± SD for triplicate reaction.
Appendix Figure S1. […] (A) Chemical struc tures of
Sano/f_i-14g, -14i and -14n compounds. (B) IC50 values of inhibitors on indicated recombinant k inases. […]

[3] = test system: BT-474c cells; assay: Cell growth in vitro (confluency, Incucyte ZOOM); type: cell-based, human
Protocol: (§3) Figure 8 Dual treatment with Akt and SGK inhibitors reduces tumour growth in BT‐474 xenograft model • BT‐474 cells were treated for the indicated times with 0.3 μM MK‐2206. The cell lysates were analysed by immunoblot using the indicated antibodies. • BT‐474c cells were treated with inhibitors as indicated either as monotherapy or in combination and cell confluency measured on the Incucyte ZOOM every 4 h for up to 4 weeks. • BT‐474 cells were injected subcutaneously into athymic Foxn1 ^nu nude mice. […] The tumour volume was measured twice a week. Tumour growth is represented as the fold change mean ± SEM. • All mice were weighed at the end of the treatments. […] Results are presented as a mean ± SD from three different samples. • Tumours were harvested at the end of the experiment, 4 h after the last dosage and subjected to immunohistochemical analysis using cleaved caspase‐3 antibody (clCasp3). Apoptotic cells were counted in 25 fields per condition (left panel) and quantified as clCasp3‐positive cells/field (right panel). The results are presented as mean ± SD number of cleaved caspase‐3 positive cells. Representative images are shown. Scale bar, 100 μm. • Tumours were harvested at the end of the experiment, 4 h after the last dosage and subjected to immunohistochemical analysis with the indicated antibodies. Representative images are shown. Scale bar, 100 μm. • Tumours were obtained the same way as in (G) and subjected to immunoblot analysis with the indicated antibodies. Six different tumours were analysed from each treatment group and each line represents one tumour sample. TEXT PRINTED IN THE PICTURE: (E) MK-2206: plasma conc.
SGK3 (upper panel) and S6K1 (middle panel) were immunoprecipitated and subjected to in vitro kinase assay by measuring phosphorylation of the Crosstide substrate peptide in the presence of 0.1 mM [γ‐^32P]ATP in a 30 min 30°C reaction. Kinase reactions are presented as means ± SD for triplicate reaction. Immunoprecipitates (IP) were also analysed by immunoblot with the indicated antibodies. […]

[4] = test system: BT-474 human breast xenograft; assay: BT-474 xenograft tumour growth in nude mice; type: in vivo; details: 24 days, monotherapy
Protocol: as §1, §2

[5] = Plasma concentration at end of xenograft study; type: in vivo, mice; details: 2–3 h after last dose on day 24, MK-2206 100 mg/kg, 14h 25 mg/kg p.o.
Protocol: as §3

MLK3, sequence (Q16584 whole entry, species assumed): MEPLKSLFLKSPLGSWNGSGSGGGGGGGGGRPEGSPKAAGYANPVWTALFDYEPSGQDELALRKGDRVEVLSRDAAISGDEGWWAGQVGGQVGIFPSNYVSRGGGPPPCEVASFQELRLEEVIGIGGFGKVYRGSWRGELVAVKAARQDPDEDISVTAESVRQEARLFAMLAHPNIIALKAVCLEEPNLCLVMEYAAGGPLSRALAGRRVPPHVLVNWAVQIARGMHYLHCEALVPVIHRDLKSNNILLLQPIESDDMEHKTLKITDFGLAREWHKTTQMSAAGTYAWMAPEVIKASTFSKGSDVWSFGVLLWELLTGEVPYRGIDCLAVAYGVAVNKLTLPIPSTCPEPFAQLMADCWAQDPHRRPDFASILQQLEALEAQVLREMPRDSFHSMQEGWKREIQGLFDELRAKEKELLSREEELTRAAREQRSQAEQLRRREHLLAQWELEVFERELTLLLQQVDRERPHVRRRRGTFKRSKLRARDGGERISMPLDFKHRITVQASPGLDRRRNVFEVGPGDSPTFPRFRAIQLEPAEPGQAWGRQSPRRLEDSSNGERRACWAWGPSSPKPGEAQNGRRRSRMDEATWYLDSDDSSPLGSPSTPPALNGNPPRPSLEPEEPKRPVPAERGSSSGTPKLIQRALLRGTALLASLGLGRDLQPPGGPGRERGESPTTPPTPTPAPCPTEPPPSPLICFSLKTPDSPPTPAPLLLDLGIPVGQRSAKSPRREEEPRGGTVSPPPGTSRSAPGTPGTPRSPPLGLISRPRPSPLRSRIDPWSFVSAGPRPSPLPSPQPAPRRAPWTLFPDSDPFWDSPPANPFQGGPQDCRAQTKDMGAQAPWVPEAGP

Row | SMILES | phosphorylation markers in tumour samples (Akt 473, PRAS40, NDRG1, S6) [1] | IC50 [2] [nM] | cell growth when 14h is combined with Akt inhibitor ([3]; 3 μM 14h with 0.3 μM AZD5363 or MK-2206, from beginning or 12 days after) | anti-proliferative effect alone ([3]; 3 μM, 5–6 days) | anti-tumour effect ([4]; 25 mg/kg p.o. 5 times/week) | plasma conc. ([5]; dual treatment) [nM] | plasma conc. ([5]; mono treatment) [nM] | time to reach confluency ([3]; 0.3 μM Akt inhibitor, long-term growth assay) [days] | inhibition of in vivo growth of BT-474 ([4]; 100 mg/kg p.o. 5 times/week)
1 | Nc1n[nH]c2nc(-c3ccc(NS(=O)(=O)c4cc(Cl)ccc4Cl)cc3)cnc12 [14h] | no major effect | 84 | further reduction in cell growth | little anti‐proliferative effect | No anti‐tumour effects | 1390 ± 360 | 1770 ± 540 | – | –
2 | NC1(c2ccc(-c3nc4ccn5c(=O)[nH]nc5c4cc3-c3ccccc3)cc2)CCC1 [MK-2206] | ablated Akt 473 and PRAS40 phosphorylation | – | – | – | – | 2690 ± 250 | 2690 ± 530 | ~20 | ~ 20%
